Test results from patent US20110224210A1, “NOVEL BIS-AMIDES AS ANTI-MALARIAL AGENTS” (priority 2008, published 2011).

system: P. falciparum K1 (strain resistant to chloroquine and pyrimethamine), erythrocytic stages; assay: Plasmodium falciparum in vitro assay, [3H] hypoxanthine incorporation; format: cell-based; settings: Plasmodium falciparum, K1, P. falciparum strain K1; [3H] hypoxanthine incorporation; read-out: IC50 (nM) on K1
Outline: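 K1 strain parasites grown in human red cells, 2.5% haematocrit, 0.3% parasitaemia, 37 °C, 4% CO2/3% O2; compounds in seven serial doubling dilutions.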

| Structure (SMILES) | IC50 |
| --- | --- |
| Cc1ccccc1CN(C)CCN(C)C(=O)[C@H](Cc1ccccc1)N(Cc1ccc(-c2ccccn2)cc1)C(=O)C=Cc1ccc(C(F)(F)F)cc1 [Example 233, (S)-N-[1-(Methyl-{2-[methyl-(2-methyl-benzyl)-amino]-ethyl}-carbamoyl)-2-phenyl-ethyl]-N-(4-pyridin-2-yl-benzyl)-3-(4-trifluoromethyl-phenyl)-acrylamide] | 53 nM |
| Cc1ccc(CN(C)CCN(C)C(=O)[C@H](Cc2ccccc2)N(Cc2ccc(-c3ccccn3)cc2)C(=O)C=Cc2ccc(C(F)(F)F)cc2)c(C)c1 [Example 234, (S)-N-[1-({2-[(2,4-Dimethyl-benzyl)-methyl-amino]-ethyl}-methyl-carbamoyl)-2-phenyl-ethyl]-N-(4-pyridin-2-yl-benzyl)-3-(4-trifluoromethyl-phenyl)-acrylamide] | 64 nM |
| COc1cc(CN(C)CCN(C)C(=O)[C@H](Cc2ccccc2)N(Cc2ccc(N3CCOCC3)cc2)C(=O)C=Cc2ccc(C(F)(F)F)cc2)cc(OC)c1 [Example 235, (S)-N-[1-({2-[(3,5-Dimethoxy-benzyl)-methyl-amino]-ethyl}-methyl-carbamoyl)-2-phenyl-ethyl]-N-(4-morpholin-4-yl-benzyl)-3-(4-trifluoromethyl-phenyl)-acrylamide] | 58 nM |
| COc1cc(CN(C)CCN(C)C(=O)[C@H](Cc2ccccc2)N(Cc2ccc(N3CCN(C(C)=O)CC3)cc2)C(=O)C=Cc2ccc(C(F)(F)F)cc2)cc(OC)c1 [Example 236, (S)-N-[4-(4-Acetyl-piperazin-1-yl)-benzyl]-N-[1-({2-[(3,5-dimethoxy-benzyl)-methyl-amino]-ethyl}-methyl-carbamoyl)-2-phenyl-ethyl]-3-(4-trifluoromethyl-phenyl)-acrylamide] | 68 nM |
| CC(=O)N1CCN(c2ccc(CN(C(=O)C=Cc3ccc(C(F)(F)F)cc3)[C@@H](Cc3ccccc3)C(=O)N(C)CCN(C)Cc3ccc(N(C)CCO)cc3)cc2)CC1 [Example 237, (S)-N-[4-(4-Acetyl-piperazin-1-yl)-benzyl]-N-(1-{[2-({4-[(2-hydroxy-ethyl)-methyl-amino]-benzyl}-methyl-amino)-ethyl]-methyl-carbamoyl}-2-phenyl-ethyl)-3-(4-trifluoromethyl-phenyl)-acrylamide] | 55 nM |
| CCN(CC)c1ccc(CN(C)CCN(C)C(=O)[C@H](Cc2ccccc2)N(Cc2ccc(N3CCN(C(C)=O)CC3)cc2)C(=O)C=Cc2ccc(C(F)(F)F)cc2)cc1 [Example 239, (S)-N-[4-(4-Acetyl-piperazin-1-yl)-benzyl]-N-[1-({2-[(4-diethylamino-benzyl)-methyl-amino]-ethyl}-methyl-carbamoyl)-2-phenyl-ethyl]-3-(4-trifluoromethyl-phenyl)-acrylamide] | 61 nM |
| CC(=O)N1CCN(c2ccc(CN(C(=O)C=Cc3ccc(C(F)(F)F)cc3)[C@@H](Cc3ccccc3)C(=O)N(C)CCN(C)Cc3cccc(C#N)c3)cc2)CC1 [Example 243, (S)-N-[4-(4-Acetyl-piperazin-1-yl)-benzyl]-N-[1-({2-[(3-cyano-benzyl)-methyl-amino]-ethyl}-methyl-carbamoyl)-2-phenyl-ethyl]-3-(4-trifluoromethyl-phenyl)-acrylamide] | 52 nM |
| CC(=O)N1CCN(c2ccc(CN(C(=O)C=Cc3ccc(C(F)(F)F)cc3)[C@@H](Cc3ccccc3)C(=O)N(C)CCN(C)Cc3ccc4c(c3)OCCN4C)cc2)CC1 [Example 245, (S)-N-[4-(4-Acetyl-piperazin-1-yl)-benzyl]-N-[1-(methyl-{2-[methyl-(4-methyl-3,4-dihydro-2H-benzo[1,4]oxazin-7-ylmethyl)-amino]-ethyl}-carbamoyl)-2-phenyl-ethyl]-3-(4-trifluoromethyl-phenyl)-acrylamide] | 87 nM |
| CC(=O)N1CCN(c2ccc(CN(C(=O)C=Cc3ccc(C(F)(F)F)cc3)[C@@H](Cc3ccccc3)C(=O)N(C)CCN(C)Cc3ccc(OCCCN(C)C)cc3)cc2)CC1 [Example 246, (S)-N-[4-(4-Acetyl-piperazin-1-yl)-benzyl]-N-{1-[(2-{[4-(3-dimethylamino-propoxy)-benzyl]-methyl-amino}-ethyl)-methyl-carbamoyl]-2-phenyl-ethyl}-3-(4-trifluoromethyl-phenyl)-acrylamide] | 64 nM |

Stronger by IC50, values ahead:

| IC50 | Structure (SMILES) |
| --- | --- |
| 33 nM | CN(CCN(C)C(=O)[C@H](Cc1ccccc1)N(Cc1ccc(-c2ccccn2)cc1)C(=O)C=Cc1ccc(C(F)(F)F)cc1)Cc1ccsc1 [Example 232, (S)-N-(1-{Methyl-[2-(methyl-thiophen-3-ylmethyl-amino)-ethyl]-carbamoyl}-2-phenyl-ethyl)-N-(4-pyridin-2-yl-benzyl)-3-(4-trifluoromethyl-phenyl)-acrylamide] |
| 30 nM | CN(CCN(C)C(=O)[C@H](Cc1ccccc1)N(Cc1ccc(-c2ccccn2)cc1)C(=O)C=Cc1ccc(C(F)(F)F)cc1)Cc1cccnc1 [Example 231, (S)-N-(1-{Methyl-[2-(methyl-pyridin-3-ylmethyl-amino)-ethyl]-carbamoyl}-2-phenyl-ethyl)-N-(4-pyridin-2-yl-benzyl)-3-(4-trifluoromethyl-phenyl)-acrylamide] |
| 28 nM | CC(=O)N1CCN(c2ccc(CN(C(=O)C=Cc3ccc(C(F)(F)F)cc3)[C@@H](Cc3ccccc3)C(=O)N(C)CCN(C)Cc3cccc(O)c3)cc2)CC1 [Example 240, (S)-N-[4-(4-Acetyl-piperazin-1-yl)-benzyl]-N-[1-({2-[(3-hydroxy-benzyl)-methyl-amino]-ethyl}-methyl-carbamoyl)-2-phenyl-ethyl]-3-(4-trifluoromethyl-phenyl)-acrylamide] |
| 27 nM | CC(=O)N1CCN(c2ccc(CN(C(=O)C=Cc3ccc(C(F)(F)F)cc3)[C@@H](Cc3ccccc3)C(=O)N(C)CCN(C)Cc3ccc(O)cc3)cc2)CC1 [Example 238, (S)-N-[4-(4-Acetyl-piperazin-1-yl)-benzyl]-N-[1-({2-[(4-hydroxy-benzyl)-methyl-amino]-ethyl}-methyl-carbamoyl)-2-phenyl-ethyl]-3-(4-trifluoromethyl-phenyl)-acrylamide] |
| 27 nM | CC(=O)N1CCN(c2ccc(CN(C(=O)C=Cc3ccc(C(F)(F)F)cc3)[C@@H](Cc3ccccc3)C(=O)N(C)CCN(C)Cc3cccnc3)cc2)CC1 [Example 241, (S)-N-[4-(4-Acetyl-piperazin-1-yl)-benzyl]-N-(1-{methyl-[2-(methyl-pyridin-3-ylmethyl-amino)-ethyl]-carbamoyl}-2-phenyl-ethyl)-3-(4-trifluoromethyl-phenyl)-acrylamide] |
| 26 nM | COc1ccc(CN(C)CCN(C)C(=O)[C@H](Cc2ccccc2)N(Cc2ccc(N3CCN(C(C)=O)CC3)cc2)C(=O)C=Cc2ccc(C(F)(F)F)cc2)cn1 [Example 247, (S)-N-[4-(4-Acetyl-piperazin-1-yl)-benzyl]-N-[1-({2-[(6-methoxy-pyridin-3-ylmethyl)-methyl-amino]-ethyl}-methyl-carbamoyl)-2-phenyl-ethyl]-3-(4-trifluoromethyl-phenyl)-acrylamide] |
| 21 nM | CC(=O)N1CCN(c2ccc(CN(C(=O)C=Cc3ccc(C(F)(F)F)cc3)[C@@H](Cc3ccccc3)C(=O)N(C)CCN(C)Cc3nccs3)cc2)CC1 [Example 248, (S)-N-[4-(4-Acetyl-piperazin-1-yl)-benzyl]-N-(1-{methyl-[2-(methyl-thiazol-2-ylmethyl-amino)-ethyl]-carbamoyl}-2-phenyl-ethyl)-3-(4-trifluoromethyl-phenyl)-acrylamide] |
| 19 nM | CC(=O)N1CCN(c2ccc(CN(C(=O)C=Cc3ccc(C(F)(F)F)cc3)[C@@H](Cc3ccccc3)C(=O)N(C)CCN(C)Cc3ccc(OC(C)C)cc3)cc2)CC1 [Example 244, (S)-N-[4-(4-Acetyl-piperazin-1-yl)-benzyl]-N-[1-({2-[(4-isopropoxy-benzyl)-methyl-amino]-ethyl}-methyl-carbamoyl)-2-phenyl-ethyl]-3-(4-trifluoromethyl-phenyl)-acrylamide] |
| 18 nM | CN(CCN(C)C(=O)[C@H](Cc1ccccc1)N(Cc1ccc(-c2ccccn2)cc1)C(=O)C=Cc1ccc(C(F)(F)F)cc1)Cc1ccc(Br)nc1 [Example 227, (S)-N-[1-({2-[(6-Bromo-pyridin-3-ylmethyl)-methyl-amino]-ethyl}-methyl-carbamoyl)-2-phenyl-ethyl]-N-(4-pyridin-2-yl-benzyl)-3-(4-trifluoromethyl-phenyl)-acrylamide] |
| 14 nM | CC(=O)N1CCN(c2ccc(CN(C(=O)C=Cc3ccc(C(F)(F)F)cc3)[C@@H](Cc3ccccc3)C(=O)N(C)CCN(C)Cc3cccc(OCCO)c3)cc2)CC1 [Example 242, (S)-N-[4-(4-Acetyl-piperazin-1-yl)-benzyl]-N-{1-[(2-{[3-(2-hydroxy-ethoxy)-benzyl]-methyl-amino}-ethyl)-methyl-carbamoyl]-2-phenyl-ethyl}-3-(4-trifluoromethyl-phenyl)-acrylamide] |
| 10 nM | CN(CCN(C)C(=O)[C@H](Cc1ccccc1)N(Cc1ccc(-c2ccccn2)cc1)C(=O)C=Cc1ccc(C(F)(F)F)cc1)Cc1ccc(C(F)(F)F)nc1 [Example 230, (S)-N-[1-(Methyl-{2-[methyl-(6-trifluoromethyl-pyridin-3-ylmethyl)-amino]-ethyl}-carbamoyl)-2-phenyl-ethyl]-N-(4-pyridin-2-yl-benzyl)-3-(4-trifluoromethyl-phenyl)-acrylamide] |
| 9 nM | CN(CCN(C)C(=O)[C@H](Cc1ccccc1)N(Cc1ccc(-c2ccccn2)cc1)C(=O)C=Cc1ccc(C(F)(F)F)cc1)Cc1ccc(CO)o1 [Example 228, (S)-N-[1-({2-[(5-Hydroxymethyl-furan-2-ylmethyl)-methyl-amino]-ethyl}-methyl-carbamoyl)-2-phenyl-ethyl]-N-(4-pyridin-2-yl-benzyl)-3-(4-trifluoromethyl-phenyl)-acrylamide] |
| 9 nM | COc1ccc(CN(C)CCN(C)C(=O)[C@H](Cc2ccccc2)N(Cc2ccc(-c3ccccn3)cc2)C(=O)C=Cc2ccc(C(F)(F)F)cc2)cn1 [Example 229, (S)-N-[1-({2-[(6-Methoxy-pyridin-3-ylmethyl)-methyl-amino]-ethyl}-methyl-carbamoyl)-2-phenyl-ethyl]-N-(4-pyridin-2-yl-benzyl)-3-(4-trifluoromethyl-phenyl)-acrylamide] |
